What was measured:
[1] = system: human CYP 450 3A4/5; assay: Human cytochrome P450 inhibition, 3A4/5; type: in vitro ADME; details: 10 μM
[2] = system: J774 cells; assay: Intracellular drug accumulation assay in J774 cells; details: 24 h exposure; uninfected J774 cells
[3] = Mouse plasma protein binding; type: in vitro ADME
[4] = system: Mtb in J774 cells; assay: Mtb growth in J774 macrophage-like cells (mKO fluorescence); type: cell-based, Mycobacterium tuberculosis
Method in brief: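 J774 cells infected with log-phase mKO-expressing Mtb (OD600=0.2 suspension), compounds dosed from 20 μM final in two-fold dilutions to 0.039 μM, or single 10 μM in 96-well format; 37° C., 5% CO2, 6 days. mKO fluorescence read, growth expressed as percent of DMSO control.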

[5] = system: Vero cells; assay: Vero cell toxicity assay; type: cell-based, African green monkey; details: 72 h
Procedure: Vero cells (African green monkey kidney epithelial cells; ATCC CCL-81) were maintained in DMEM+10% FBS. For the cell toxicity assay, Vero cells were plated at 1×10^5 cells/well in a 96-well plate and incubated for 2-3 h to allow cells to settle. The test compound was dissolved in DMSO at a final concentration of 12 mg/ml. The test compound solution was then added to plated cells, resulting in final test concentrations of 50 to 0.78 μg/ml, with each concentration tested at least in duplicate. To evaluate […] cell viability, 20 μl of a 1:20 MTS:PMS reagent (Promega CellTiter 96 AQueous non-radioactive cell proliferation assay kit) was added to each well after 72 h of incubation at 37° C. and the plate then incubated for an additional 3 h. Absorbance at 490 nm was read on a Molecular Devices SpectraMax M5 microplate reader. The CC50 (the minimal amount of compound that inhibited Vero cell growth by 50%) was extrapolated by plotting absorbance at 490 nm versus the […].

With `CCSc1ncc(CN2CCN(c3nc4ccccc4o3)CC2)cn1` [Compound C6, 2-(4-((2-(ethylthio)pyrimidin-5-yl)methyl)piperazin-1-yl)benzo[d]oxazole] as the compound, how does the “% inhibition of CYP 3A4/5” value [1] read?
Its value is < 1%.

And the “intracellular accumulation in J774 cells” value [2]?
The value was “dose-dependent accumulation”.

And the “protein binding to mouse plasma” value [3]?
The value was 97.0%.

What about the “% Reduction of Intracellular Infection (J774.1 cells) at 10 μM cmpd” value ([4]; 10 μM compound, J774.1 cells) of the same compound?
Its value is 54.2 ± 2.6%.

What about the “Mtb growth in J774 cells (in words)” value ([4]; 10 μM, 6 days post-infection) of the same compound?
The value was “Mtb growth inhibition”.

What about the inhibition at 10 µM ([4]; Mycobacterium tuberculosis, J774CELLS, J774, 144 h, read-out: % inhibition compared to Rif in J774 at 10 μM) of the same compound?
Its inhibition at 10 µM is 40.5 ± 0.6%.

And the inhibition at 20 µM ([4]; Mycobacterium tuberculosis, J774CELLS, J774, 144 h, read-out: % inhibition compared to Rif in J774 at 20 μM)?
The inhibition at 20 µM was 53.6 ± 2.7%.

And the “Inhibition of Mtb growth in J774 cells phenotype” value ([4]; compared to C6)?
The value was “Y”.

What about the “CC50 (minimum compound concentration to inhibit cell growth by 50%)” value [5] of the same compound?
Its value is > 50 µg/mL.

— US20240300934A1, “COMPOUNDS FOR MODULATING MYCOBACTERIUM TUBERCULOSIS RESPONSE” (priority 2021, published 2024)
